This series can be described thus: activity coefficient (dimensionless); of the first substance listed, at infinite dilution; xn = mol fraction of the nth substance listed. As to conditions: 101.33 kPa, Liquid, Chromatography, x1 = 0.

SMILES strings stand for the structures. ± gives the expanded uncertainty stated by the source.

For `Cc1ccccc1C` [1,2-dimethylbenzene] + CCCCCCCCCCCC[N+](C)(C)CCOc1ccccc1.N#C[N-]C#N, the activity coefficient by setting is: (328.15 K) 1.23 ± 0.08; (338.15 K) 1.28 ± 0.08; (348.15 K) 1.32 ± 0.09; (358.15 K) 1.36 ± 0.09; (368.15 K) 1.4 ± 0.09; (378.15 K) 1.43 ± 0.09.
As to `Cc1ccccc1C` [1,2-dimethylbenzene] + CCCCCCCCCCCC[N+](C)(C)CCOc1ccccc1.O=S(=O)([N-]S(=O)(=O)C(F)(F)F)C(F)(F)F, the activity coefficient came out at 0.783 ± 0.051 (318.15 K); 0.83 ± 0.053 (328.15 K); 0.874 ± 0.056 (338.15 K); 0.922 ± 0.058 (348.15 K); 0.968 ± 0.061 (358.15 K); 1.01 ± 0.06 (368.15 K).
For the compound `Cc1cccc(C)c1` [1,3-dimethylbenzene] + CCCCCCCCCCCC[N+](C)(C)CCOc1ccccc1.N#C[N-]C#N, the activity coefficient is, setting by setting: (328.15 K) 1.38 ± 0.09; (338.15 K) 1.44 ± 0.09; (348.15 K) 1.5 ± 0.1; (358.15 K) 1.56 ± 0.1; (368.15 K) 1.61 ± 0.11; (378.15 K) 1.66 ± 0.11.
Consider `Cc1cccc(C)c1` [1,3-dimethylbenzene] + CCCCCCCCCCCC[N+](C)(C)CCOc1ccccc1.O=S(=O)([N-]S(=O)(=O)C(F)(F)F)C(F)(F)F, for which the activity coefficient runs as follows: (318.15 K) 0.847 ± 0.054; (328.15 K) 0.902 ± 0.057; (338.15 K) 0.957 ± 0.06; (348.15 K) 1.01 ± 0.06; (358.15 K) 1.07 ± 0.07; (368.15 K) 1.12 ± 0.07.
In the case of `Cc1ccc(C)cc1` [1,4-dimethylbenzene] + CCCCCCCCCCCC[N+](C)(C)CCOc1ccccc1.N#C[N-]C#N, the activity coefficient by setting is: (328.15 K) 1.38 ± 0.09; (338.15 K) 1.44 ± 0.09; (348.15 K) 1.5 ± 0.1; (358.15 K) 1.57 ± 0.1; (368.15 K) 1.63 ± 0.11; (378.15 K) 1.69 ± 0.11.
For the compound `Cc1ccc(C)cc1` [1,4-dimethylbenzene] + CCCCCCCCCCCC[N+](C)(C)CCOc1ccccc1.O=S(=O)([N-]S(=O)(=O)C(F)(F)F)C(F)(F)F, the activity coefficient is 0.861 ± 0.055 (318.15 K); 0.916 ± 0.058 (328.15 K); 0.967 ± 0.061 (338.15 K); 1.02 ± 0.06 (348.15 K); 1.08 ± 0.07 (358.15 K); 1.14 ± 0.07 (368.15 K).
Regarding `C1COCCO1` [1,4-dioxane] + CCCCCCCCCCCC[N+](C)(C)CCOc1ccccc1.N#C[N-]C#N, the activity coefficient worked out at 0.76 ± 0.05 (328.15 K); 0.79 ± 0.051 (338.15 K); 0.818 ± 0.053 (348.15 K); 0.846 ± 0.054 (358.15 K); 0.871 ± 0.056 (368.15 K); 0.898 ± 0.057 (378.15 K).
Regarding `C1COCCO1` [1,4-dioxane] + CCCCCCCCCCCC[N+](C)(C)CCOc1ccccc1.O=S(=O)([N-]S(=O)(=O)C(F)(F)F)C(F)(F)F, the activity coefficient reads like this: (318.15 K) 0.45 ± 0.036; (328.15 K) 0.483 ± 0.037; (338.15 K) 0.517 ± 0.039; (348.15 K) 0.551 ± 0.04; (358.15 K) 0.584 ± 0.041; (368.15 K) 0.619 ± 0.043.
Turning to `C=CCCCCCCCC` [1-decene] + CCCCCCCCCCCC[N+](C)(C)CCOc1ccccc1.N#C[N-]C#N, the activity coefficient reads like this: (328.15 K) 6.45 ± 0.44; (338.15 K) 6.67 ± 0.45; (348.15 K) 6.83 ± 0.47; (358.15 K) 6.99 ± 0.48; (368.15 K) 7.14 ± 0.49; (378.15 K) 7.22 ± 0.49.
Regarding `C=CCCCCCCCC` [1-decene] + CCCCCCCCCCCC[N+](C)(C)CCOc1ccccc1.O=S(=O)([N-]S(=O)(=O)C(F)(F)F)C(F)(F)F, the activity coefficient by setting is: (318.15 K) 4.02 ± 0.27; (328.15 K) 4.15 ± 0.28; (338.15 K) 4.27 ± 0.29; (348.15 K) 4.4 ± 0.3; (358.15 K) 4.52 ± 0.31; (368.15 K) 4.63 ± 0.32.
On to `C=CCCCCC` [1-heptene] + CCCCCCCCCCCC[N+](C)(C)CCOc1ccccc1.N#C[N-]C#N, for which the activity coefficient reads like this: (328.15 K) 4.19 ± 0.29; (338.15 K) 4.28 ± 0.29; (348.15 K) 4.36 ± 0.3; (358.15 K) 4.43 ± 0.3; (368.15 K) 4.51 ± 0.31; (378.15 K) 4.59 ± 0.31.
Regarding `C=CCCCCC` [1-heptene] + CCCCCCCCCCCC[N+](C)(C)CCOc1ccccc1.O=S(=O)([N-]S(=O)(=O)C(F)(F)F)C(F)(F)F, the activity coefficient is 2.5 ± 0.17 (318.15 K); 2.59 ± 0.18 (328.15 K); 2.67 ± 0.18 (338.15 K); 2.76 ± 0.19 (348.15 K); 2.84 ± 0.19 (358.15 K); 2.92 ± 0.2 (368.15 K).
For `C#CCCCCC` [1-heptyne] + CCCCCCCCCCCC[N+](C)(C)CCOc1ccccc1.N#C[N-]C#N, the activity coefficient runs as follows: (328.15 K) 1.93 ± 0.13; (338.15 K) 2.03 ± 0.14; (348.15 K) 2.12 ± 0.14; (358.15 K) 2.21 ± 0.15; (368.15 K) 2.3 ± 0.16; (378.15 K) 2.4 ± 0.16.
On to `C#CCCCCC` [1-heptyne] + CCCCCCCCCCCC[N+](C)(C)CCOc1ccccc1.O=S(=O)([N-]S(=O)(=O)C(F)(F)F)C(F)(F)F, for which the activity coefficient runs as follows: (318.15 K) 1.45 ± 0.1; (328.15 K) 1.53 ± 0.1; (338.15 K) 1.61 ± 0.11; (348.15 K) 1.68 ± 0.11; (358.15 K) 1.75 ± 0.12; (368.15 K) 1.83 ± 0.12.
For the compound `C#CCCCC` [1-hexyne] + CCCCCCCCCCCC[N+](C)(C)CCOc1ccccc1.N#C[N-]C#N, the activity coefficient came out at 1.66 ± 0.11 (328.15 K); 1.74 ± 0.12 (338.15 K); 1.82 ± 0.12 (348.15 K); 1.88 ± 0.13 (358.15 K); 1.95 ± 0.13 (368.15 K); 2.02 ± 0.14 (378.15 K).
In the case of `C#CCCCC` [1-hexyne] + CCCCCCCCCCCC[N+](C)(C)CCOc1ccccc1.O=S(=O)([N-]S(=O)(=O)C(F)(F)F)C(F)(F)F, the activity coefficient (318.15 K) stood at 1.26 ± 0.08; the activity coefficient (328.15 K) worked out at 1.33 ± 0.09; the activity coefficient (338.15 K) stood at 1.39 ± 0.09; the activity coefficient (348.15 K) stood at 1.45 ± 0.1; the activity coefficient (358.15 K) worked out at 1.51 ± 0.1; the activity coefficient (368.15 K) came out at 1.57 ± 0.1.
For `CCC[N+](=O)[O-]` [1-nitropropane] + CCCCCCCCCCCC[N+](C)(C)CCOc1ccccc1.N#C[N-]C#N, the activity coefficient reads like this: (328.15 K) 0.83 ± 0.053; (338.15 K) 0.85 ± 0.055; (348.15 K) 0.868 ± 0.055; (358.15 K) 0.886 ± 0.056; (368.15 K) 0.903 ± 0.057; (378.15 K) 0.92 ± 0.058.
Take `CCC[N+](=O)[O-]` [1-nitropropane] + CCCCCCCCCCCC[N+](C)(C)CCOc1ccccc1.O=S(=O)([N-]S(=O)(=O)C(F)(F)F)C(F)(F)F: the activity coefficient is, setting by setting: (318.15 K) 0.722 ± 0.048; (328.15 K) 0.747 ± 0.049; (338.15 K) 0.77 ± 0.05; (348.15 K) 0.793 ± 0.052; (358.15 K) 0.815 ± 0.053; (368.15 K) 0.837 ± 0.054.
For the compound `C#CCCCCCC` [1-octyne] + CCCCCCCCCCCC[N+](C)(C)CCOc1ccccc1.N#C[N-]C#N, the activity coefficient was found to be 2.22 ± 0.15 (328.15 K); 2.34 ± 0.16 (338.15 K); 2.46 ± 0.17 (348.15 K); 2.57 ± 0.17 (358.15 K); 2.68 ± 0.18 (368.15 K); 2.8 ± 0.19 (378.15 K).
Turning to `C#CCCCCCC` [1-octyne] + CCCCCCCCCCCC[N+](C)(C)CCOc1ccccc1.O=S(=O)([N-]S(=O)(=O)C(F)(F)F)C(F)(F)F, the activity coefficient (318.15 K) is 1.69 ± 0.11; the activity coefficient (328.15 K) stood at 1.78 ± 0.12; the activity coefficient (338.15 K) came out at 1.86 ± 0.13; the activity coefficient (348.15 K) was 1.95 ± 0.13; the activity coefficient (358.15 K) was found to be 2.03 ± 0.14; the activity coefficient (368.15 K) is 2.12 ± 0.14.
Turning to `C=CCCC` [1-pentene] + CCCCCCCCCCCC[N+](C)(C)CCOc1ccccc1.N#C[N-]C#N, the activity coefficient runs as follows: (328.15 K) 3.3 ± 0.22; (338.15 K) 3.36 ± 0.23; (348.15 K) 3.42 ± 0.23; (358.15 K) 3.48 ± 0.24; (368.15 K) 3.54 ± 0.24; (378.15 K) 3.61 ± 0.25.
`C=CCCC` [1-pentene] + CCCCCCCCCCCC[N+](C)(C)CCOc1ccccc1.O=S(=O)([N-]S(=O)(=O)C(F)(F)F)C(F)(F)F: the activity coefficient was found to be 1.83 ± 0.12 (318.15 K); 1.88 ± 0.13 (328.15 K); 1.93 ± 0.13 (338.15 K); 1.98 ± 0.13 (348.15 K); 2.03 ± 0.14 (358.15 K); 2.08 ± 0.14 (368.15 K).
For the compound `C#CCCC` [1-pentyne] + CCCCCCCCCCCC[N+](C)(C)CCOc1ccccc1.N#C[N-]C#N, the activity coefficient (328.15 K) amounted to 1.47 ± 0.1; the activity coefficient (338.15 K) stood at 1.53 ± 0.1; the activity coefficient (348.15 K) is 1.6 ± 0.11; the activity coefficient (358.15 K) amounted to 1.66 ± 0.11; the activity coefficient (368.15 K) stood at 1.73 ± 0.12; the activity coefficient (378.15 K) was determined as 1.79 ± 0.12.
As to `C#CCCC` [1-pentyne] + CCCCCCCCCCCC[N+](C)(C)CCOc1ccccc1.O=S(=O)([N-]S(=O)(=O)C(F)(F)F)C(F)(F)F, the activity coefficient is, setting by setting: (318.15 K) 1.07 ± 0.07; (328.15 K) 1.13 ± 0.07; (338.15 K) 1.19 ± 0.08; (348.15 K) 1.25 ± 0.08; (358.15 K) 1.32 ± 0.09; (368.15 K) 1.39 ± 0.09.
Consider `CC(C)CC(C)(C)C` [2,2,4-trimethylpentane] + CCCCCCCCCCCC[N+](C)(C)CCOc1ccccc1.N#C[N-]C#N, for which the activity coefficient was found to be 7.07 ± 0.48 (328.15 K); 7.15 ± 0.49 (338.15 K); 7.23 ± 0.49 (348.15 K); 7.32 ± 0.5 (358.15 K); 7.39 ± 0.5 (368.15 K); 7.47 ± 0.51 (378.15 K).

For the origin of these results see the NIST ThermoML archive (doi:10.1016/j.fluid.2018.09.024).
